Test results reported in PubChem BioAssay (NCI).
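Dose response: 5 concentrations. Exposure: 48 h. Format: 96-well plates. Endpoint: linear interpolation; highest concentration if not reached. GI50 = concentration required for 50% inhibition of growth. TGI denotes the concentration required for complete inhibition of growth.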

Assays:
Test in all cases: NCI anticancer screen, dose series, 48 h
OVCAR-4 ovarian = tested on: OVCAR-4 ovarian
SF-295 CNS = tested on: SF-295 CNS
COLO 205 colon = tested on: COLO 205 colon
A549 NSCLC = tested on: A549 NSCLC
NCI-H522 lung = tested on: NCI-H522 lung
MDA-MB-435 = tested on: MDA-MB-435
SF-268 CNS = tested on: SF-268 CNS
T-47D breast = tested on: T-47D breast
K-562 leukemia = tested on: K-562 leukemia

SMILES	TGI (OVCAR-4 ovarian) [µM]	TGI (SF-295 CNS) [µM]	TGI (COLO 205 colon) [µM]	TGI (A549 NSCLC) [µM]	TGI (NCI-H522 lung) [µM]	TGI (MDA-MB-435) [µM]	TGI (SF-268 CNS) [µM]	TGI (T-47D breast) [µM]	TGI (K-562 leukemia) [µM]	GI50 (MDA-MB-435) [µM]	GI50 (OVCAR-4 ovarian) [µM]	GI50 (T-47D breast) [µM]	GI50 (SF-295 CNS) [µM]	GI50 (COLO 205 colon) [µM]	GI50 (A549 NSCLC) [µM]	GI50 (NCI-H522 lung) [µM]	GI50 (SF-268 CNS) [µM]	GI50 (K-562 leukemia) [µM]
CCOC(=O)c1nnsc1NN	> 100	> 100	> 100	> 100	> 100	> 100	> 100											
COC1=C(C)C(=O)c2c(c(COC(N)=O)c3n2CC(OC(C)=O)C3OC(C)=O)C1=O (configuration not stated)	1.03	0.657	0.314	1.6	0.0379	0.415	0.674	3.11	> 100									
C[C@H]1SC(c2ccc(Cl)cc2Cl)N(NC(=O)c2ccncc2)C1=O (some centres not stated)		> 100	> 100		60.5	75.3	72.3	> 100	> 100									
COc1ccc(NC(=S)NC(=O)c2ccc3c(c2)Sc2ccccc2O3)c([N+](=O)[O-])c1	91	> 100	> 100	> 100	35.3	> 100	45.7	> 100	> 100									
CC1(C)[C@H]2CC[C@@]13C(=O)N1C(=O)O[C@@H]([C@H]1Cl)C(Cl)(COCc1ccccc1)C(=O)OCCO[C@H]3C2 (some centres not stated)	> 100	> 100	36.6	> 100	> 100	> 100	> 100	> 100	> 100									
C[C@]12CC[C@@H]3c4cc(I)c(O)cc4CC[C@H]3[C@@H]1CC[C@@H]2O	39.3	16.4	36.2	25.1	17.8	8.02	58.5	37.4	24.2	2.11								
COC(=O)c1cc(C#N)[nH]c1-c1cc(Br)cs1	> 57.7	24.7	35.6	31.7	13.3	31.5	51	12.8	> 79.9									
C\C(=N/N=C1/C(=C\N(C)C)C(=O)NC(=O)N1C)c1ccc(Cl)cc1	> 100	> 100	> 100	> 100	> 100	> 100	> 100	> 100	> 100									
COC(=O)C1=Nc2c(C)nn(-c3ccccc3)c2N=C(c2ccccc2)C1	> 10	> 10	> 10	> 10	> 10	> 10	> 10	> 10	> 10									
COc1ccc(CN2C3CC2CN(c2ccc(-c4cc(OCC(C)(C)O)cn5ncc(C#N)c45)cn2)C3)cn1	> 100	> 100	> 100	> 100	> 100	> 100	> 100	> 100	> 100	> 100	3.63	9.02	5.27	2.99	6.27	17.5	4.6	> 100
Oc1[nH]c2ccccc2c1N=NC(=S)Nc1ccc(Cl)cc1	> 100	> 100	> 100	> 100	> 100	> 100	> 100	> 100	> 100									
CN(C)CC1CCC(CN(C)C)C1=O (configuration not stated)	15.8	32.8	1.41	39	0.359	> 100	42.4	3.48	> 20.3									
COc1ccc(N(C(=O)Nc2ccc(Cl)c(Cl)c2)C2c3cccn3C(=O)N2c2ccc(Cl)c(Cl)c2)cc1 (configuration not stated)	> 100	94.8	> 100	> 100		> 100	> 100		> 100									
O=C1NCN(c2ccccc2)C12CCN(CCCN1CCN(CCOC(c3ccc(F)cc3)c3ccc(F)cc3)CC1)CC2	9.58	3.38	3.18	4.14	3.69	3.26	3.79	3.09	10.5									
COC(=O)/C(C#N)=C(/NCCN)Nc1ccccc1	> 100	> 100	> 100	> 100	> 100	> 100	> 100	> 100	> 100									
COc1cc(NC(C)=O)ccc1C(=O)NN1C(=O)/C(=C/c2ccco2)N=C1c1ccccc1	> 50	> 50	> 50	> 50	> 50	> 50	> 50	> 50	> 50									
CC(=O)OC1CCC2C3CCc4c(C)ccc(OS(=O)(=O)c5ccccc5)c4C3CCC12C (configuration not stated)	88.4	> 100	> 100		> 100	> 100	> 100		> 100									
CCC(C(=O)C(=O)OC)P1(=O)OC(C)(C)CN1C(C)(C)C (configuration not stated)	> 100	> 100	> 100	> 100		> 100	> 100	> 100	> 100									
C#CCN(Cc1ccc2nc(OC)c(OC)nc2c1)c1cc(OC)c(OC)c(OC)c1	> 46.9	> 100	41.5	> 89.6	36.1	74.7	> 94.1	> 100	> 100									
Cc1cnc2c(c1)C(=O)C1=C(C2=O)C2OC(=O)CC2OC1(C)C (configuration not stated)	0.359	2.68	0.326	5.62	0.148	0.912	0.623	1.42										
O=C(C(Cl)=C(N1CCOCC1)N1CCOCC1)C(Cl)Cl	> 100		> 100	> 100	> 100	> 100	> 100	> 100	> 100									
COC(=O)[C@H](Cc1ccccc1)NC(=O)CCCCCCC(=O)NO	> 100	44.6	> 100	> 100	30.6	63.8	72.1	8.88	> 100									
